# From ChEMBL document CHEMBL1201862, “PubChem BioAssay data set” (2004)
# Calls of active or inactive are those of the source. Cut-off read from the data, not from the text of the source, for most assays here: actives have a measured IC50 and inactives only a lower limit.
# Assays:
# [1] = target: Intestinal-type alkaline phosphatase (Homo sapiens, UniProt P09923); assay: activation of human intestinal alkaline phosphatase – biochemical, dose response (AID 488873); type: functional
# [2] = target: Intestinal-type alkaline phosphatase (Mus musculus, UniProt P24822); assay: PubChem AID 488785; type: functional
# Chain of Intestinal-type alkaline phosphatase (Mus musculus, UniProt P24822) (P24822 whole entry): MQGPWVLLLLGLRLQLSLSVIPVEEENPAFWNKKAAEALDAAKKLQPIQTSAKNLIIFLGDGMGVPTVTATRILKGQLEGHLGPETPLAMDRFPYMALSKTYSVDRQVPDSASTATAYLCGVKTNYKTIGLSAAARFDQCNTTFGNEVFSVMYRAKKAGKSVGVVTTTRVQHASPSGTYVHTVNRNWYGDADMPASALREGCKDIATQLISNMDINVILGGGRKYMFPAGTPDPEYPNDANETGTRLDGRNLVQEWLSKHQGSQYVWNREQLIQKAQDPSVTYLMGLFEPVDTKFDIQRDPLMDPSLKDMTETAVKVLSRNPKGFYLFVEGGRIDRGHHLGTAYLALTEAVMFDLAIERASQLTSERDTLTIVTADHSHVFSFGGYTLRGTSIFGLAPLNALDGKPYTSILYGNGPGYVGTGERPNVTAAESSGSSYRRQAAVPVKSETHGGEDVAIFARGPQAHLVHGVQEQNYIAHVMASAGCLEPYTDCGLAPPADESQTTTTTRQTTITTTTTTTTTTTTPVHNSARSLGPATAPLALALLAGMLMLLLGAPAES
# [3] = target: T1, Alkaline phosphatase, tissue-nonspecific isozyme (Homo sapiens, UniProt P05186); assay: TNAP enzyme inhibition by screening hits, dose response, selectivity assay for mouse IAP inhibitor project, biochemical, human TNAP, uHTS hits (AID 488906); type: functional
# T1 sequence (P05186 whole entry): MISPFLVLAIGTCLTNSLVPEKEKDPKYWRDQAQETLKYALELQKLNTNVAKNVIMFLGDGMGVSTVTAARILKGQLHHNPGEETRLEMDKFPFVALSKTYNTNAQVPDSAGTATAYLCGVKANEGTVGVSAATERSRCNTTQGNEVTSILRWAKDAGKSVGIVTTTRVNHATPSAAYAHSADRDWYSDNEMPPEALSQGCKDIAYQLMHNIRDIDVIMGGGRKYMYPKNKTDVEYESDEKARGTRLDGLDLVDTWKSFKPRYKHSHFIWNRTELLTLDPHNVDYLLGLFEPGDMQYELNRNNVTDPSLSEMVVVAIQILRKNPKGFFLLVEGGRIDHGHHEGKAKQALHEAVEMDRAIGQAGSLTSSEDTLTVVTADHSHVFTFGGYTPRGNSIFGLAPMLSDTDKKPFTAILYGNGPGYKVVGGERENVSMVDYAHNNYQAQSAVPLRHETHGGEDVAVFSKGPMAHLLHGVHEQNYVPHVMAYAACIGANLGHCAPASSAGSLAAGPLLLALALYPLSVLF
# [4] = Artemis endonuclease inhibitor potency, dose response, biochemical, fluorescence intensity (AID 720701); type: functional;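 note: Artemis endonuclease enzyme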
# SUMO-activating enzyme [5] = target: T2, SUMO-activating enzyme (Homo sapiens, UniProt Q9UBT2); assay: SUMOylation inhibitor hit validation, confirmation, SUMOylation inhibitor project, biochemical, AlphaScreen (AID 2018); type: functional
# T2 sequence (Q9UBE0 whole entry): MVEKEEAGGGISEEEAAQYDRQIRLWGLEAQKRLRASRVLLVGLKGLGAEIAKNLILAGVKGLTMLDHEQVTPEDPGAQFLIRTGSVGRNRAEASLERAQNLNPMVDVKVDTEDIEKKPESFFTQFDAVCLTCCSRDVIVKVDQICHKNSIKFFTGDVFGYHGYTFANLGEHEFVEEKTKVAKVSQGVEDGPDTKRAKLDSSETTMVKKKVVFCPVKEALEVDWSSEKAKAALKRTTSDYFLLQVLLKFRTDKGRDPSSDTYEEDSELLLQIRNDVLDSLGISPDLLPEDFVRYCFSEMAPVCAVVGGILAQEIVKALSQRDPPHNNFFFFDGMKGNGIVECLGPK
# T2 sequence (Q9UBT2 whole entry): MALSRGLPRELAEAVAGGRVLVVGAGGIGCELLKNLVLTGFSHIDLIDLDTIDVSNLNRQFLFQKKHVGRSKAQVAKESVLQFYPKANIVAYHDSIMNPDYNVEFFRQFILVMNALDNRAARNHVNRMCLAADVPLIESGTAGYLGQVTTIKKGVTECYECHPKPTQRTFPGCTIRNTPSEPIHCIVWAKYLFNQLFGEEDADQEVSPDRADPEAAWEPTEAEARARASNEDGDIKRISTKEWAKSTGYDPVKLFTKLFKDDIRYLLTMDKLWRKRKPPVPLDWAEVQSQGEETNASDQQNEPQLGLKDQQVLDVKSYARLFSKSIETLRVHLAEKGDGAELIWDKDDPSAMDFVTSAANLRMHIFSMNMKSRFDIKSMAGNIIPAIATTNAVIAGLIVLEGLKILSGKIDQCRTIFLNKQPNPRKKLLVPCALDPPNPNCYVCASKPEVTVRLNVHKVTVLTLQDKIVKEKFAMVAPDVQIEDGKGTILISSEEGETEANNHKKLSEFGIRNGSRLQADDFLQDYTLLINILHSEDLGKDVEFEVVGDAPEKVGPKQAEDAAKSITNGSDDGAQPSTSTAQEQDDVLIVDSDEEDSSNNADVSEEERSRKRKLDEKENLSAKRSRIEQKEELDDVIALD
# SUMO-activating enzyme [6] = target: T2, SUMO-activating enzyme; assay: inhibitors of in vitro SUMOylation cascade, primary screen, biochemical, HTRF, uHTS (AID 2006); type: protein-complex assay
# [7] = inhibitors of intracellular T. cruzi replication, confirmation, NIH3T3 host cells, beta-gal luminescence (AID 2044); type: functional, cell-based;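 note: intracellular parasites grown in NIH/3T3 mouse fibroblasts as host cells; luminescent beta-galactosidase reporter signal from transgenic T. cruzi replicating inside host cells; inhibitors lower the luminescence signal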
# [8] = cytotoxicity toward NIH3T3 fibroblasts, dose response, counter-screen, cell-based, ATP luminescence, mouse fibroblasts (AID 2010); type: functional;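 note: cells exposed to compound for about 90 hours before reading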
# [9] = target: T3, Replicative DNA helicase DnaB (Mycobacterium tuberculosis, UniProt P9WMR3); assay: DnaB intein splicing inhibitors, dose response, biochemical, cell-free fluorescence (AID 449749); type: functional
# T3 sequence (P9WMR3 whole entry): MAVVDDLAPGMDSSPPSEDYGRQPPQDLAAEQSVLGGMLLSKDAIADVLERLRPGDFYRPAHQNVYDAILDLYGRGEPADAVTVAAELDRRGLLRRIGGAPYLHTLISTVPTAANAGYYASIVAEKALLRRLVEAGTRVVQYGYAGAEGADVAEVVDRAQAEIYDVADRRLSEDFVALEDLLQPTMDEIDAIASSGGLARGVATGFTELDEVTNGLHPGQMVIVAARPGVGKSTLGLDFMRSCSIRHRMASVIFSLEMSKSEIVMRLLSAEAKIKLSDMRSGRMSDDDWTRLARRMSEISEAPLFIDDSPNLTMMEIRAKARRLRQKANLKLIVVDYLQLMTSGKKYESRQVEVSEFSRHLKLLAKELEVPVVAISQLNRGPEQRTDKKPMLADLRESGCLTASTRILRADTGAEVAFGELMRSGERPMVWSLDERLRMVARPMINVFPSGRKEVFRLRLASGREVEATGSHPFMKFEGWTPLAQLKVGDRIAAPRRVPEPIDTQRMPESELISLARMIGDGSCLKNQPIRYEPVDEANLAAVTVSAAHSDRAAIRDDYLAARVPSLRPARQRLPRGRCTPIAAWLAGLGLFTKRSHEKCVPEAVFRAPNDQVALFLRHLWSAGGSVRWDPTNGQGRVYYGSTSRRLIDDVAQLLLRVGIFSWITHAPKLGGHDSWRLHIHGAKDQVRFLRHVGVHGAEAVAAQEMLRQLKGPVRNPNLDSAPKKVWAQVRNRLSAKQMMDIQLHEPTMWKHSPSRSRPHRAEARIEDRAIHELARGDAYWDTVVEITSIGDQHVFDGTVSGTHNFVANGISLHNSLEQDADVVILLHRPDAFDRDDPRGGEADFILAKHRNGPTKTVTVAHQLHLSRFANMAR
# Vero = Vero cell cytotoxicity, cytotoxicity control for flavivirus capping enzyme inhibitors (AID 588742); type: functional; conditions: Chlorocebus sabaeus
# Protein RecA = target: T4, Protein RecA (Mycobacterium tuberculosis, UniProt P9WHJ3); assay: Fluorescence Cell-Free Homogeneous Dose Retest to Identify Inhibitors of RecA-Intein Splicing Activity. [Related pubchem assays (depositor defined):AID2097, AID2223, AID489010, AID492950]; type: functional
# T4 sequence (P9WHJ3 whole entry): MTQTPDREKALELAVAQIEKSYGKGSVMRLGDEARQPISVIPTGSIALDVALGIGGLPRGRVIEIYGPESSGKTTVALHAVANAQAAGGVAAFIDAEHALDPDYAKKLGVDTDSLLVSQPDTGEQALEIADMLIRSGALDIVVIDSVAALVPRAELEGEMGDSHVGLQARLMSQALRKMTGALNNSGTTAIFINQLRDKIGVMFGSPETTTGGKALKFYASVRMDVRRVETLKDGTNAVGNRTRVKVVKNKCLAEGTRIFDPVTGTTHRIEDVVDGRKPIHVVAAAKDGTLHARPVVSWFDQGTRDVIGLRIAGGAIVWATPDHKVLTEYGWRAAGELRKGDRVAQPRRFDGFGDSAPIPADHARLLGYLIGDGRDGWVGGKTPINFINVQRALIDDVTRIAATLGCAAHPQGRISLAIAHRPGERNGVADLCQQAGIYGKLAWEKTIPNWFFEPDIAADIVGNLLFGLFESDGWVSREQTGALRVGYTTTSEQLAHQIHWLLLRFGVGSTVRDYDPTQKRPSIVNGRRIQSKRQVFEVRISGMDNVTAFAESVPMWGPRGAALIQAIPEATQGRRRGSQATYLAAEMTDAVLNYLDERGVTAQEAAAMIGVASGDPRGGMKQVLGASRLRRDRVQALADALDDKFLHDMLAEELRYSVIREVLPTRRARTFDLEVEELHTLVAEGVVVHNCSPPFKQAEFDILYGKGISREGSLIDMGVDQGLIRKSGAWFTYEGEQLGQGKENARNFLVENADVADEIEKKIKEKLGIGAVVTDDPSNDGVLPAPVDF
# [10] = target: Tyrosine-protein phosphatase non-receptor type 7 (Homo sapiens, UniProt P35236); type: functional
# Chain of Tyrosine-protein phosphatase non-receptor type 7 (P35236 whole entry): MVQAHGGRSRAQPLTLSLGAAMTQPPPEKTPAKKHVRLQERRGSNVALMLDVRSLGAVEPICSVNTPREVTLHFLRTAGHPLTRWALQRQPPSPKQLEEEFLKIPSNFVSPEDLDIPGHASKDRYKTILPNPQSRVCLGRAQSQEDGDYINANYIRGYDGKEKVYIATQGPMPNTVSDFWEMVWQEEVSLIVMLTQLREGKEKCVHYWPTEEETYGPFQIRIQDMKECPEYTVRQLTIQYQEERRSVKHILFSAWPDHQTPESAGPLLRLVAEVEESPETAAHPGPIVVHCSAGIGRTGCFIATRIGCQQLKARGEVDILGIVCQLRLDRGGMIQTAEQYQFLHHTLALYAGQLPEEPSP
# [11] = target: T5, Tyrosine-protein phosphatase non-receptor type 22 (Homo sapiens, UniProt Q9Y2R2); type: functional
# T5 sequence (Q9Y2R2 whole entry): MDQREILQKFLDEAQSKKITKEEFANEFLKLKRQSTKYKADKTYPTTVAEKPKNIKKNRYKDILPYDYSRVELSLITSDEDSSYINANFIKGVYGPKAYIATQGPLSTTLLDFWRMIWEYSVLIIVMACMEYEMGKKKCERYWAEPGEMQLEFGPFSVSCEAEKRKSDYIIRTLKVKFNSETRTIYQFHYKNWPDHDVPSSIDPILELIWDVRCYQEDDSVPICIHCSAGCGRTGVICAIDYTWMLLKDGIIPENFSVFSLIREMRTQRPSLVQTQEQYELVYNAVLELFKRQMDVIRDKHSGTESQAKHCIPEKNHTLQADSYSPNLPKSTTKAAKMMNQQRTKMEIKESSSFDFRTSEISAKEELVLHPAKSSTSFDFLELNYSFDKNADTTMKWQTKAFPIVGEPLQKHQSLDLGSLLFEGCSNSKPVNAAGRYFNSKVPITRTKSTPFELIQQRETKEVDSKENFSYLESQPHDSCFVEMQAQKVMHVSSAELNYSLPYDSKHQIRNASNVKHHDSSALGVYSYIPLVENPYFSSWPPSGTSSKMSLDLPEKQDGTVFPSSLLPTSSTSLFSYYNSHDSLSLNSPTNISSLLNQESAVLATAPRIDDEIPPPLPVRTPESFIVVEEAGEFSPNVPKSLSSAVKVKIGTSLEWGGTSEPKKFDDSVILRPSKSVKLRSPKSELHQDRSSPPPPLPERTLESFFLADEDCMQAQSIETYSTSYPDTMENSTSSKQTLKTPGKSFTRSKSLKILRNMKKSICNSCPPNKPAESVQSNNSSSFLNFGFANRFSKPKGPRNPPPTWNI
# [12] = target: T5, Tyrosine-protein phosphatase non-receptor type 22; type: functional; remark: listed apart in the source
# [13] = target: Eukaryotic translation initiation factor 4H (Homo sapiens, UniProt Q15056); assay: eIF4H inhibition in translation initiation, SAR follow-up (AID 435011); type: functional
# [14] = target: T6, Polyadenylate-binding protein 1 (Homo sapiens, UniProt P11940); assay: PABP inhibition in translation initiation, SAR follow-up (AID 435018); type: functional
# T6 sequence (P11940 whole entry): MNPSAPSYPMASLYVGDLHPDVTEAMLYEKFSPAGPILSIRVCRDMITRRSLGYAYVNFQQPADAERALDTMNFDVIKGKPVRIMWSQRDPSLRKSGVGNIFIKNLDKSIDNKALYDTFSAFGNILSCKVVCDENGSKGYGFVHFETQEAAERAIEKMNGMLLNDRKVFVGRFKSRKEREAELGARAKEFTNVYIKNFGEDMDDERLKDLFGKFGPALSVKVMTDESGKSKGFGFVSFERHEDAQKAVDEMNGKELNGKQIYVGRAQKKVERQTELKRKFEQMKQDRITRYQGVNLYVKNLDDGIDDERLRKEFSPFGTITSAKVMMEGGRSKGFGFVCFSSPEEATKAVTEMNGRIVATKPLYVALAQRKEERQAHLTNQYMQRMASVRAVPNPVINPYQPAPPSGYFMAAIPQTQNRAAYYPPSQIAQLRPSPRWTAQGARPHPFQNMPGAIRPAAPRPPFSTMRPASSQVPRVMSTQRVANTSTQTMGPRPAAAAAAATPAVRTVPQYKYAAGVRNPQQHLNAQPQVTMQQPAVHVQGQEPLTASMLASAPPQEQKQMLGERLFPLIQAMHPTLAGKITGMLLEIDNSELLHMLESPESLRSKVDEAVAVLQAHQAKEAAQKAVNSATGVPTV
# [15] = target: T6, Polyadenylate-binding protein 1; assay: SAR analysis for the identification of translation initiation inhibitors (PABP) via an Electrophoretic Mobility Shift Dose Response Assay. [Related pubchem assays (depositor defined):AID2012, AID2014, AID2030]; type: functional
# [16] = target: FAD-linked sulfhydryl oxidase ALR (Homo sapiens, UniProt P55789); assay: inhibitors of human ALR sulfhydryl oxidase, dose response, biochemical, H2O2 detection, luminescence, cherry-pick (AID 493248)
# Chain of FAD-linked sulfhydryl oxidase ALR (P55789 whole entry, the tested form may be a part): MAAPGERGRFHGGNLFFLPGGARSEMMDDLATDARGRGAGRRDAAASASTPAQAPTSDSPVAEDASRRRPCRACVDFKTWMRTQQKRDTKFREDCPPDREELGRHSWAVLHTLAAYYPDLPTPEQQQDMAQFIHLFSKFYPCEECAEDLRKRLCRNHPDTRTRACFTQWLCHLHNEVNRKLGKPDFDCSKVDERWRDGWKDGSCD
# [17] = target: T7, Nucleotide-binding oligomerization domain-containing protein 1 (Homo sapiens, UniProt Q9Y239); assay: SAR analysis of compounds that inhibit NOD1 - Set 3. [Related pubchem assays (depositor defined):AID1566, AID1575, AID1578, AID1849, AID1852, AID2333, AID2335, AID2466]; type: functional
# T7 sequence (Q9Y239 whole entry, the tested form may be a part): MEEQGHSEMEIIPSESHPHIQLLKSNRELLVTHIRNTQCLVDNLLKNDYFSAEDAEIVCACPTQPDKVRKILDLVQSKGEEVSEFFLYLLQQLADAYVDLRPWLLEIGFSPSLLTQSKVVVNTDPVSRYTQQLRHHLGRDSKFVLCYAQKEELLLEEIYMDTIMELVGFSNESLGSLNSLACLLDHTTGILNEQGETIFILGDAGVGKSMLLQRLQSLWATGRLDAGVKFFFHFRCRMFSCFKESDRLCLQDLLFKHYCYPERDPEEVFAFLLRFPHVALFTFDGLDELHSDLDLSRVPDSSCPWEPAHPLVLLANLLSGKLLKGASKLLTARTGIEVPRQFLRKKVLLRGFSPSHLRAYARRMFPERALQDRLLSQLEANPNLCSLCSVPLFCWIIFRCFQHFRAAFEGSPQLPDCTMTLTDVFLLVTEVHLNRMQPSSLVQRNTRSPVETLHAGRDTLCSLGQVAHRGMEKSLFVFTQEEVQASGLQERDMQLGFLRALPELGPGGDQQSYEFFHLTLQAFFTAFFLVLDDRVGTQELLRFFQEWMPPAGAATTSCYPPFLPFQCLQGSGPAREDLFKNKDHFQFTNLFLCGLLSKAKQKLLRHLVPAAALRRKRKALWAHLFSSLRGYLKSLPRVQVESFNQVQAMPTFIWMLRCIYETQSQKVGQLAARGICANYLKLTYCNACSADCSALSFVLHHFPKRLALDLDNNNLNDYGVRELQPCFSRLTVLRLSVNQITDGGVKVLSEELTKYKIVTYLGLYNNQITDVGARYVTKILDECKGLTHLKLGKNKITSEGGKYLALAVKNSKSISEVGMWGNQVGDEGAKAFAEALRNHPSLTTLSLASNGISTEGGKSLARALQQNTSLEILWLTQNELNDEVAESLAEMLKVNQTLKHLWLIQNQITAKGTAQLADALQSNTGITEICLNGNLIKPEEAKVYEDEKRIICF
# Tumor necrosis factor [18] = target: T8, Tumor necrosis factor (Homo sapiens, UniProt P01375); assay: TNFa-triggered NF-kB activation inhibitors, SAR follow-up, cell-based, set 3 (AID 2801); type: functional
# T8 sequence (P01375 whole entry): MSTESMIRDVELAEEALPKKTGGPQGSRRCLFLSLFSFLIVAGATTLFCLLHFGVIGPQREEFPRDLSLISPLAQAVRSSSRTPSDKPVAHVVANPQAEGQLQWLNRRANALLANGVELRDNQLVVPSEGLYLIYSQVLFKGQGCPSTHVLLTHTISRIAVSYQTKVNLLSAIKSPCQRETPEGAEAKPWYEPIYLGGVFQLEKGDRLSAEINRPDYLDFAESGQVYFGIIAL
# HEK293 [19] = assay: SAR analysis of compounds that are cytotoxic to HEK293 - Set 3. [Related pubchem assays (depositor defined):AID1575, AID1578, AID1848, AID1849, AID2001, AID2333, AID2334, AID2335, AID2337, AID2469]; type: functional, cell-based; conditions: Homo sapiens
# [20] = target: Nucleotide-binding oligomerization domain-containing protein 2 (Homo sapiens, UniProt Q9HC29); assay: NOD2 signaling inhibitors, analog potency, SAR follow-up, cell-based, set 3 (AID 2799); type: functional
# HEK293 [21] = assay: NOD1 signaling inhibitors, primary screen, cell-based, luminescence, uHTS (AID 1578); type: functional; conditions: Homo sapiens
# HEK293 [22] = assay: cells; type: functional, cell-based; conditions: Homo sapiens
# HEK293 [23] = assay: cells; type: functional, cell-based; conditions: Homo sapiens; remark: listed apart in the source
# HEK293 [24] = assay: NOD2 signaling inhibitors in MDP-stimulated cells, cell-based, uHTS, luminescence (AID 2001); type: functional; conditions: Homo sapiens
# Tumor necrosis factor [25] = target: T8, Tumor necrosis factor; assay: TNFa-triggered NF-kB activation inhibitors, SAR follow-up, cell-based, revised (AID 2337); type: functional
# [26] = target: T7, Nucleotide-binding oligomerization domain-containing protein 1; assay: NOD1 signaling inhibitors, SAR follow-up, revised (AID 2333); type: functional
# HEK293 [27] = assay: cells; conditions: Homo sapiens
# SUMO E1/E2 = SUMO E1/E2 (Homo sapiens, UniProt P63279+Q9UBE0+Q9UBT2); assay: SAR analysis of SUMOylation using HTRF in an in-Vitro dose response assay. [Related pubchem assays (depositor defined):AID2006, AID2011, AID2018, AID2069, AID2658]; type: functional
# Chain of SUMO E1/E2 (Q9UBE0 whole entry): as the sequence (Q9UBE0 whole entry) above
# Chain of SUMO E1/E2 (Q9UBT2 whole entry): as the sequence (Q9UBT2 whole entry) above
# Chain of SUMO E1/E2 (P63279 whole entry): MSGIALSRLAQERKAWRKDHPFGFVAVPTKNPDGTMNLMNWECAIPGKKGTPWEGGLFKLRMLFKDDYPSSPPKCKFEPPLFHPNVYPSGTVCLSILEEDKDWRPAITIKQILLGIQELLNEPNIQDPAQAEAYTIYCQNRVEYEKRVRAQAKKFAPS
# [28] = target: T9, Voltage-gated N-type calcium channel alpha-1B subunit/Amyloid beta A4 precursor protein-binding family A member 1 (Homo sapiens, UniProt Q00975+Q02410); assay: disruptors of Mint-PDZ/N-type channel peptide interaction – biochemical, HTRF, set 2, SAR follow-up (AID 434980); type: functional
# [29] = target: T9, Voltage-gated N-type calcium channel alpha-1B subunit/Amyloid beta A4 precursor protein-binding family A member 1; assay: disruptors of Mint-PDZ/N-type channel peptide interaction – biochemical, HTRF, SAR follow-up (AID 2489); type: functional
# Chain of Intestinal-type alkaline phosphatase (Homo sapiens, UniProt P09923) (P09923 whole entry): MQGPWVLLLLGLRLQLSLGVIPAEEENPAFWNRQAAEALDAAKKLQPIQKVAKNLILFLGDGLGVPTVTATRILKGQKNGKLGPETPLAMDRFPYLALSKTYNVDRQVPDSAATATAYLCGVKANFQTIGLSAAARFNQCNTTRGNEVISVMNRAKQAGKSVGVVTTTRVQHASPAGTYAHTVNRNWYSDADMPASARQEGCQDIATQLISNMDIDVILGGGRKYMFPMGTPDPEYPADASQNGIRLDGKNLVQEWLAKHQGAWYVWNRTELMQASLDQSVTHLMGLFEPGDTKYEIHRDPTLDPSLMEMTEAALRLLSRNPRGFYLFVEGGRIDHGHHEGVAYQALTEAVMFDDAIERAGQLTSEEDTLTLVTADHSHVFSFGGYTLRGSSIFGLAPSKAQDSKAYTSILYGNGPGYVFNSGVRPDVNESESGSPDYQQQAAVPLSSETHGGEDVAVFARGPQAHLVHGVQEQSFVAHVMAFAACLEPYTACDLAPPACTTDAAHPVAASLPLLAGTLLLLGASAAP
compound,measurement,setting,value
O=C(O)CC(C(=O)O)N1C(=O)/C(=C/c2ccc(-c3nc4ccccc4s3)o2)SC1=S (configuration not stated),EC50,[1],> 100 µM (inactive)
same,IC50,[2],13.4 µM (active)
same,IC50,[3],24.3 µM (active)
same,IC50,[4],> 20 µM (inactive)
CCCCCn1c(NC(=O)c2ccco2)c(S(=O)(=O)c2ccc(C)cc2)c2nc3ccccc3nc21,IC50,SUMO-activating enzyme [5],2.74 µM (active)
same,IC50,SUMO-activating enzyme [6],13.1 µM (active)
same,EC50,[7],3.27 µM (active)
same,EC50,[8],> 60 µM (not active)
same,AC50,[9],> 380 µM (inactive)
same,CC50,Vero,> 40 µM (active)
same,EC50,Protein RecA,> 380 µM (inconclusive)
O=C1C=C(NCCNc2c(F)c(F)c(CO)c(F)c2F)CCC1,IC50,[10],> 79.4 µM (inactive)
same,IC50,[11],> 79.4 µM (inactive)
same,IC50,[12],> 79.4 µM (inactive)
COc1ccc(N2Cc3cccc(C(=O)NC(C)CCc4ccco4)c3C2=O)cc1 (configuration not stated),IC50,[13],5.42 µM (active)
same,IC50,[14],> 100 µM (inactive)
same,IC50,[15],10 µM (active)
same,AC50,[16],1.06 µM (active)
CN(C(=O)c1ccccc1)C(c1ccccc1)c1c[nH]c2ccccc12 (configuration not stated),IC50,[17],> 20 µM (inactive)
same,IC50,Tumor necrosis factor [18],> 20 µM (inactive)
same,IC50,HEK293 [19],> 20 µM (inactive)
same,IC50,[20],12.4 µM (active)
O=C(Nc1sc2c(c1C(=O)O)CCCC2)c1ccc(Cl)cc1,EC50,HEK293 [21],6.58 µM (active)
same,IC50,HEK293 [22],> 20 µM (inactive)
same,IC50,HEK293 [23],> 20 µM (inactive)
same,IC50,HEK293 [24],16 µM (inactive)
same,IC50,Tumor necrosis factor [25],13.4 µM (active)
same,IC50,[26],2.86 µM (active)
same,IC50,HEK293 [27],> 20 µM (inactive)
COc1ccccc1CNC(=O)CCOC(=O)c1cc(-c2ccco2)nc2ccccc12,IC50,SUMO E1/E2,38.6 µM (active)
same,IC50,[28],23 µM (active)
same,IC50,[29],> 56.8 µM (inactive)
